{
  "source": "patent US11064658B2",
  "about": "“Method for inducing plants to increase their flavonoid compound content” (Industrial Technology Research Institute, priority 2018, dated 2021)",
  "format_in_all_cases": "in vivo",
  "key": {"Chrysanthemum morifolium [1]": {"test_system": "Chrysanthemum morifolium", "experiment": "Al ion stimulation at different concentrations for 72 hours, hydroponic culture; flavonoid glycoside contents by HPLC", "conditions": "whole plants, AlCl3 100, 150, 200, 250 μM, compared to control group", "protocol": "1. MS liquid medium was prepared based on the formulation of Table 1 shown above. 2. Different amounts of AlCl3 solution were added to the MS liquid medium prepared above to respectively form MS liquid mediums with AlCl3 final concentrations of 0 μM (control group), 100 μM, 150 μM, 200 μM and 250 μM for ready for use. 3. Tissue culture seedlings of Chrysanthemum morifolium (young shoot of Chrysanthemum morifolium) were taken out from solid culture tubes. After that, the solid medium on the root of the plants was washed with water, and the whole plants were inserted into test tubes containing the MS liquid medium with different AlCl3 final concentration prepared above, and the roots of the plants were immersed in the liquid medium. Finally, the above-ground parts of the plants were covered with sealed bags to protect the cuticula on the surfaces of the plant leaves to prevent rapid evapotranspiration of water. 4. After being immersed for 72 hours, the morphological changes of the plants were observed and the samples of whole plants were collected. Then, the collected samples were lyophilized. 5. After the lyophilization, extraction was performed on the whole plant of Chrysanthemum morifolium. […]"}, "Chrysanthemum morifolium [2]": {"test_system": "Chrysanthemum morifolium", "experiment": "Al ion stimulation for different lengths of time, hydroponic culture; flavonoid glycoside contents by HPLC", "conditions": "whole plants, AlCl3 70, 250, 350 μM, 48, 72, 96 hours, compared to control group, had a dose effect", "protocol": "1. MS liquid medium was prepared based on the formulation of Table 1 shown in the following. 2. Different amounts of AlCl3 solution were added to the MS liquid medium prepared above to respectively form MS liquid mediums with AlCl3 final concentrations of 0 μM (control group), 70 μM, 250 μM and 350 μM for ready for use. 3. Tissue culture seedlings of Chrysanthemum morifolium (young shoot of Chrysanthemum morifolium) were taken out from solid culture tubes. After that, the solid medium on the root of the plants was washed with water, and the whole plants were inserted into test tubes containing the MS liquid medium with different AlCl3 final concentration prepared above, and the roots of the plants were immersed in the liquid medium. Finally, the above-ground parts of the plants were covered with sealed bags to protect the cuticula on the surfaces of the plant leaves to prevent rapid evapotranspiration of water. 4. After being immersed for 48, 72 and 96 hours, the morphological changes of the plants were observed and the samples of whole plants were collected. Then, the collected samples were lyophilized. 5. After the lyophilization, extraction was performed on the whole plant of Chrysanthemum morifolium. […]"}, "Chrysanthemum morifolium [3]": {"test_system": "Chrysanthemum morifolium", "experiment": "Al ion stimulation of flowering plants for 96 hours, soil culture; flavonoid contents of flowers", "conditions": "AlCl3 1.25 mM and 2.5 mM, compared to control group", "protocol": "1. AlCl3 solutions with concentrations of 1.25 mM and 2.5 mM were prepared, respectively. 2. The flowering plants of Chrysanthemum morifolium (adult of Chrysanthemum morifolium) cultured by soil culture together with the soil and flower pots where the plants were located, were immersed in the AlCl3 solutions prepared above. 3. After being immersed for 96 hours, the morphological changes of the plants were observed and the samples of flowers were collected and lyophilized. 4. After the lyophilization, extraction was performed on the flowers of Chrysanthemum morifolium. The extraction method used was water extraction, and the dried flowers and deionized water were mixed at a ratio of 1:20 (g/mL) (i.e., 1 g dry weight of flowers was added to 20 mL of deionized water) to form a mixture. Using a condensing heating system, the mixture was heated to boiling for 90 minutes to complete the extraction and obtain an extract solution. The plant residue in the extract solution was removed by filtration, and then the extract solution was further lyophilized to obtain an extract."}, "Ixeris chinensis": {"test_system": "Ixeris chinensis", "experiment": "Al ion stimulation alone or combined with ultraviolet irradiation, hydroponic culture; total flavonoid content of flowers and pedicels", "conditions": "for total flavonoid content: flowers and pedicels, compared to control group", "protocol": "1. MS liquid medium was prepared according to the formulation of Table 1 shown above. 2. Different amounts of AlCl3 solution were added to the MS liquid medium prepared above to respectively form MS liquid mediums with AlCl3 final concentrations of 0 mM (control group) and 1.25 mM for ready for use. 3. […] chinensis plants were sampled from the field. Leaves and pedicels of the above-ground part and root of the under-ground part of the […] chinensis plant were wiped and wash with water and the root were allowed in a form of bare root. After that, the whole plant was inserted into a test tube containing the MS liquid medium with AlCl3 prepared above, and the root of the plant was immersed in the liquid medium. 4. At the 73th hour of the immersion, the plants were irradiated with ultraviolet B for 1 hour. The plants were then allowed to recover for 3 hour. After the recovery, the morphological changes of the plants were observed and samples of flowers and pedicels were collected. Then, the collected samples were lyophilized. 5. The collected flowers and pedicels of the fresh plant were extracted with 30% ethanol and subjected to total flavonoid content analysis."}, "Chrysanthemum morifolium [4]": {"test_system": "Chrysanthemum morifolium", "experiment": "Al ion stimulation alone or combined with ultraviolet irradiation, hydroponic culture; flavonoid glycoside contents by HPLC", "conditions": "whole plants, compared to control group", "protocol": "1. MS liquid medium was prepared based on the formulation of Table 1 shown above. 2. Different amounts of AlCl3 solution were added to the MS liquid medium prepared above to respectively form MS liquid mediums with AlCl3 final concentrations of 0 μM (control group) and 250 μM for ready for use. 3. Tissue culture seedlings of Chrysanthemum morifolium (young shoot of Chrysanthemum morifolium) were taken out from solid culture tubes. After that, the solid medium on the roots of the plants were washed with water, and the whole plants were inserted into test tubes containing the MS liquid medium with different AlCl3 final concentration prepared above, and the roots of the plant were immersed in the liquid medium. Finally, the above-ground parts of the plants were covered with sealed bags to protect the cuticula on the surfaces of the plant leaves to prevent rapid evapotranspiration of water. 4. […] The plants were then allowed to recover for 1 hour. After the recovery, the morphological changes of the plants were observed and samples of whole plants were collected. Then, the collected samples were lyophilized. 5. After the lyophilization, extraction was performed on the whole plant of Chrysanthemum morifolium. The extraction method used was water extraction, and the dried plant and deionized water were mixed at a ratio of 1:20 (g/mL) (i.e., 1 g dry weight of plant was added to 20 mL of deionized water) to form a mixture. Using a condensing heating system, the mixture was heated to boiling for 90 minutes to complete the extraction and obtain an extract solution. The plant residue in the extract solution was removed by filtration, and then the extract solution was further lyophilized to obtain an extract. 6. High-performance liquid chromatography was performed on the extract mentioned above to determine the contents of luteolin-7-O-β-D-glycoside and […] which belong to flavonoid compounds."}, "Chrysanthemum morifolium [5]": {"test_system": "Chrysanthemum morifolium", "experiment": "Al ion stimulation alone or combined with ultraviolet irradiation, solid medium culture; total flavonoid content", "conditions": "whole plant, compared to control group", "protocol": "1. Different amounts of AlCl3 were added to the formulation of Table 2 shown above to respectively form MS solid mediums with final concentration of 0 μM (control group) and 350 μM for ready for use. 2. A terminal bud of a tissue culture seedling of Chrysanthemum morifolium (young shoot of Chrysanthemum morifolium) was cut and inserted to a solid medium without addition of the stimulation ion. After the plant had grown roots, the root part of the plant having the root with a length of less than 0.5 cm was inserted to the solid medium prepared above to perform the solid medium culture. 4. On the 41st day of the culture, the plants were irradiated with ultraviolet B for 0, 1, 2 and 4 hours, respectively. The plants were then allowed to recover for 3 hours. After the recovery, the morphological changes of the plants were observed and samples of whole plants (plants stimulated by Al ions alone, plants irradiated with 1 hour of ultraviolet alone, and plants stimulated by Al ions and 1, 2, and 4 hours of ultraviolet irradiation were obtained) were collected. After that, the collected samples were lyophilized. 5. After the lyophilization, extraction was performed on the whole plant. […] Quantitative analysis of total flavonoids was performed on the extracts mentioned above."}, "Chrysanthemum morifolium [6]": {"test_system": "Chrysanthemum morifolium", "experiment": "Zn ion stimulation for 40 days, solid medium culture; flavonoid glycoside contents by HPLC", "conditions": "whole plants, Zn ion 15, 30, 45 mM, compared to control group (3 mM)", "protocol": "1. Different amounts of ZnSO4 were added to the formulation of Table 2 shown in the following to respectively form MS solid mediums with different Zn ion final concentration of 3 mM (control group), 15 mM, 30 mM and 45 mM for ready for use. 2. A terminal bud of a tissue culture seedling of Chrysanthemum morifolium (young shoot of Chrysanthemum morifolium) was cut and inserted to the solid medium prepared above (since a rooted plant was not easy to insert into solid medium, the experiment was performed in this way) to perform the solid medium culture. Since Zn is mainly absorbed by the roots of plants, the evaluation only could start after the plant had grown roots. The Zn element could be absorbed and utilized by the plant only after the plant had grown roots. Plants were allowed to absorb zinc during growth and development, thereby causing changes in physiological and compositional components in the plants. 3. After being cultured for 40 days, the morphological changes of the plants were observed and the samples of whole plants were collected. Then, the collected samples were lyophilized. 4. After the lyophilization, extraction was performed on the whole plant of Chrysanthemum morifolium. […]"}, "Chrysanthemum morifolium [7]": {"test_system": "Chrysanthemum morifolium", "experiment": "Cu ion stimulation alone or combined with ultraviolet irradiation, hydroponic culture; flavonoid glycoside contents by HPLC", "conditions": "whole plants, compared to control group"}, "[8]": {"conditions": "AlCl3 250 μM plus ultraviolet B 1 hour at 97th hour, recovery 1 hour"}, "[9]": {"conditions": "CuSO4 250 μM plus ultraviolet B 1 hour at 97th hour, recovery 1 hour"}},
  "data": [
    {"smiles": "[Cl][Al]([Cl])[Cl]", "note": "[Al ions, AlCl3]", "values": [
      {"measurement": "content of apigenin-7-O-β-D-glycoside", "setting": "Chrysanthemum morifolium [1]", "value": "significantly increased about twofold to threefold"},
      {"measurement": "content of luteolin-7-O-β-D-glycoside", "setting": "Chrysanthemum morifolium [1]", "value": "significantly increased about twofold to threefold"},
      {"measurement": "content of apigenin-7-O-β-D-glycoside", "setting": "Chrysanthemum morifolium [2]", "value": "significantly increased"},
      {"measurement": "content of luteolin-7-O-β-D-glycoside", "setting": "Chrysanthemum morifolium [2]", "value": "significantly increased"},
      {"measurement": "content of apigenin", "setting": "Chrysanthemum morifolium [3]", "value": "significantly increased"},
      {"measurement": "content of apigenin-7-O-β-D-glycoside", "setting": "Chrysanthemum morifolium [3]", "value": "significantly increased"},
      {"measurement": "content of luteolin-7-O-β-D-glycoside", "setting": "Chrysanthemum morifolium [3]", "value": "significantly increased"},
      {"measurement": "appearance of plants before and after the ultraviolet irradiation, under Al ion stimulation", "setting": "Ixeris chinensis; AlCl3 1.25 mM, ultraviolet B 1 hour", "value": "no significant difference"},
      {"measurement": "total flavonoid content", "setting": "Ixeris chinensis; AlCl3 1.25 mM plus ultraviolet B 1 hour at 73th hour, recovery 3 hour", "value": "about 3.5 fold"},
      {"measurement": "total flavonoid content", "setting": "Ixeris chinensis; AlCl3 1.25 mM, Al ions alone", "value": "increased"},
      {"measurement": "content of apigenin-7-O-β-D-glycoside", "setting": "Chrysanthemum morifolium [4]; [8]", "value": "about 40 fold"},
      {"measurement": "content of luteolin-7-O-β-D-glycoside", "setting": "Chrysanthemum morifolium [4]; [8]", "value": "about 40 fold"},
      {"measurement": "content of apigenin-7-O-β-D-glycoside", "setting": "Chrysanthemum morifolium [4]; AlCl3 250 μM, Al ions alone", "value": "increased"},
      {"measurement": "content of luteolin-7-O-β-D-glycoside", "setting": "Chrysanthemum morifolium [4]; AlCl3 250 μM, Al ions alone", "value": "increased"},
      {"measurement": "total flavonoid content", "setting": "Chrysanthemum morifolium [5]; AlCl3 350 μM plus ultraviolet B 1, 2, 4 hours on 41st day, recovery 3 hours", "value": "increased"},
      {"measurement": "total flavonoid content", "setting": "Chrysanthemum morifolium [5]; AlCl3 350 μM, Al ions alone", "value": "increased"}
    ]},
    {"smiles": "O=S(=O)([O-])[O-].[Zn+2]", "note": "[Zn ions, ZnSO4]", "values": [
      {"measurement": "content of apigenin-7-O-β-D-glycoside", "setting": "Chrysanthemum morifolium [6]", "value": "significantly increased about sevenfold to eightfold"},
      {"measurement": "content of luteolin-7-O-β-D-glycoside", "setting": "Chrysanthemum morifolium [6]", "value": "significantly increased about sevenfold to eightfold"}
    ]},
    {"smiles": "O=S(=O)([O-])[O-].[Cu+2]", "note": "[Cu ions, CuSO4]", "values": [
      {"measurement": "content of apigenin-7-O-β-D-glycoside", "setting": "Chrysanthemum morifolium [7]; [9]", "value": "about 37 fold"},
      {"measurement": "content of luteolin-7-O-β-D-glycoside", "setting": "Chrysanthemum morifolium [7]; [9]", "value": "about 37 fold"},
      {"measurement": "content of apigenin-7-O-β-D-glycoside", "setting": "Chrysanthemum morifolium [7]; CuSO4 250 μM, Cu ions alone", "value": "increased"},
      {"measurement": "content of luteolin-7-O-β-D-glycoside", "setting": "Chrysanthemum morifolium [7]; CuSO4 250 μM, Cu ions alone", "value": "increased"}
    ]}
  ]
}
